From patent US6255324A, “Amino-and mercurio-substituted 4',5'-dihydropsoralens and therapeutical uses thereof” (priority 1998, dated 2001)
Read-outs that look alike come from different tables or passages of the source.

Experiments:
PAM 212 keratinocytes [1] = experiment: PAM 212 keratinocyte growth inhibition (photo-toxicity with UVA / dark-toxicity without light); assay type: cell-based; details: UVA 320-400 nm, 1.28 J/cm2, growth 4-5 days
Description: Representative examples of the compounds described and claimed herein were tested in this assay for biological activity and found to be potent inhibitors of cell growth. Inhibition of cell growth was rapid, dependent on concentration, and required light activation. […] A description of this assay follows.
The photobiological activity was assayed using a keratinocyte cell line grown in a monolayer culture. In this assay, PAM 212 keratinocytes were grown in Dulbecco's Modified Eagle's medium supplemented with 10% newborn calf serum in a 5% carbon dioxide incubator. Cells were inoculated into 6-well Falcon plastic culture dishes at 25,000 cells per well. After 24 hours, the medium was charged to fresh growth medium supplemented with increasing concentrations of the test compounds or the control medium. Controls and test concentrations were analyzed in triplicate.
These plates were then incubated in a 37 degree C. carbon dioxide incubator. After 30 minutes culture plates were exposed to UVA light (UVA, 320-400 nm) emitted from a bank of four BLB fluorescent light tubes (F40 BL, Sylvania) placed approximately 10 cm above the cell culture plates. The incident light on the culture plates was 2.4 mW/cm^2 as measured with an International Light UV radiometer, Model IL 442A. The cells were exposed to 1.28 J/square centimeter of UVA.
After completion of the irradiation phase, the cell culture medium was drained, the cells refed with fresh growth medium and then re-incubated in the carbon dioxide incubator to allow for cell growth. After 4-5 days of growth the culture plates were removed from the incubator and the cell culture medium was drained. The cells were detached from the plates with trypsin and counted in a Coulter Counter. For control cells or for cells treated with test compounds, cell growth was determined as a percentage of control. […] This value is shown in Table I for a variety of phototherapeutics.

Aspergillus niger = experiment: Fungicidal assay, MIC against Aspergillus niger in MSY broth; assay type: cell-based; details: Table II, four days at 28° C, in the dark, no unit in table (ppm levels)
Description: The antifungal activities of compounds synthesized were measured by determining the inhibition of growth of Aspergillus niger in a standard liquid medium. The liquid growth medium is described as a solution of mineral salts and yeast extract (MSY). The MSY broth was prepared as described in ASTM G21-70, and amended with glucose (10 g/l) and yeast extract (1 g/l). An aliquot ([…]) of sterile medium was dispensed into each test well of a standard 96 well microplate (Corning No. 430247). Stock solutions of test compounds were prepared by dissolving the materials in 9:1 (v/v) solutions of acetone:methanol. Appropriate volumes of stock solutions were added to the test wells in order to achieve the desired ppm levels. Each test well (plus controls) was then inoculated with […] of a standardized suspension of Aspergillus niger. The cell suspension was prepared by suspending viable cells from a slant of potato dextrose agar into sterile, deionized water. The suspension was then adjusted to provide OD686 =0.28. This density contains approximately 2.5×10^7 CFU (colony forming units)/ml. The microplates were incubated in the dark for four days at 28° C. The optical density for each well at 686 nm was then recorded automatically using a SpectraMax 340 microplate reader (Molecular Devices Corp., Sunnyvale, Calif.). All wells were visually inspected in order to corroborate data from the instrument.
The antifungal activity was measured as minimum inhibitory concentrations or MIC of the 5'-substituted-4',5'-dihydropsoralens.

Chlorella vulgaris = experiment: Algicidal assay, MIC against Chlorella in modified Allen's medium; assay type: cell-based; details: Table III, 14 days, 26 to 28° C, no unit in table (ppm)
Description: To assay the activity of the 5'-substituted-4',5'-dihydropsoralens of the invention against Chlorella, the Allen method (A. A. Allen, […], Journal of Phycology, 4, 1-4) was employed. […] The minimum inhibitory concentration (MIC) of the compounds tested against the fungus Aspergillus niger using an MSY broth is shown in Table II.
Test tubes containing modified Allen's medium were treated with increasing dosages of the compound to be tested and inoculated with a suspension of algal cells. After fourteen days of incubation, algal growth was rated as positive or negative. The minimum inhibitory concentration (MIC) of the compound is the smallest dosage showing negative algal growth.
The apparatus required consisted of sterilized test tubes, 18-150 mm and an incubator, capable of a constant (±2° C.) temperature within 26 to 28° C. The following procedure was used:
(1) Stock solutions (g/200 g deionized water each) were generated with: K2 HPO4, 1.50 g; MgSO4, 7H2 O, 1.50 g; Na2 CO3, 0.80 g; CaCl2 2H2 O, 0.50 g; Na2 SiO3 9H2 O, 1.16 g, and Citric acid, 1.20 g.
(3) The modified Allen's medium was prepared in a volumetric flask by the addition of 1.5 g NaNO3, 5.0 mL stock solution K2 HPO4, 5.0 mL stock solution MgSO4 -- 7H2 O, 5.0 mL Stock solution Na2 CO3, 10.0 mL stock solution CaCl2 2H2 O, 10.0 mL stock solution Na2 SiO3 9H2 O, 1.0 mL stock solution Citric acid and 1.0 mL stock solution PIV metal with enough deionized water to make 1000 mL of medium (Allen, 1968). The pH was adjusted to 7.8 and 5 mL of medium is added to each test tube. The tubes were sterilized in the autoclave for 20 minutes at 15 psi at 121° C. The test tubes were allowed to cool to 45-50° C. before adding the test compound and the inoculurn to the medium.
(4) The inoculum was a cell suspension from a 14-day-old culture of Chlorella vulgaris (UTEX 26, University of Texas) that was grown in modified Allen's medium.
The concentration of the stock solution in water or acetone of the compound to be tested is dependent on the largest dose required to be tested. Dilutions of the stock solution were made so that 100 μL of the stock solution of the corresponiding dilution was added per test tube. 100 μL of the solvent was added to the control to prepare the stock solution.
The inoculation consists of the addition of 100 μL of inoculurn per test tube.
The incubation of the control test tube and the test tubes containing compound and inoculum occurred in an incubator set between 26 to 28° C., with the temperature not varying more than ±2° C. Light was provided by plant growth fluorescent tubes and the test tubes were allowed to stand in the incubator for 14 days.
Rating of the test tubes containing different dosages of the compound will be positive or negative. […] If the medium in the rubes remains colorless, a negative (not contaminated) rating is given. The control is always positive. The minimum inhibitory concentration (MIC) of the compound is determined to be the smallest dosage showing negative algal growth.

[2] = system: Mycobacterium tuberculosis H37Rv; experiment: Antituberculosis primary in vitro screen, BACTEC 460; assay type: cell-based, Mycobacterium tuberculosis H37Rv ATCC 27294; details: 12.5 μg/mL, 37° C
PAM 212 keratinocytes [3] = experiment: PAM 212 keratinocyte growth inhibition (photo-toxicity with UVA / dark-toxicity without light); assay type: cell-based

[I][Hg][CH2]C1Cc2ccccc2O1 (centres unmarked) [T = HgI, 2-Iodomercurimethyl-2,3-dihydrobenzofuran]
IC50 (PAM 212 keratinocytes [1]): 5.7 µM
MIC (Aspergillus niger): < 8
MIC (Chlorella vulgaris): 10
Anti-tubercular Activity (% inhibition) [2]: 99%
IC50 (PAM 212 keratinocytes [3]): 12 µM
